Data taken from the supplement of paper PMC10307832.

Assays:
Experiment in all cases: relative viability (nuclei count vs DMSO), 5 days (fraction); higher = more cells survive
CAL-12T = tested on: CAL-12T
Procedure, shortened: (§1)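 One day after seeding in 1536-well plates, lung cancer cell lines were dosed by pin tool. Dosing was either single-drug or a fixed anchor-drug dose plus five library-drug doses (not always all listed) in √10 steps. After 5 days, nuclei were stained in one fix-and-stain step and counted on 4× images, and relative viability is the nuclei count of treated wells over that of vehicle wells, given as the median of duplicate plates.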

Calu-6 = tested on: Calu-6
Procedure, shortened: as §1

ChaGo-K-1 = tested on: ChaGo-K-1
Procedure, shortened: as §1

EBC-1 = tested on: EBC-1
Procedure, shortened: as §1

EMC-BAC-2 = tested on: EMC-BAC-2
Procedure, shortened: as §1

HCC-366 = tested on: HCC-366
Procedure, shortened: as §1

HCC-78 = tested on: HCC-78
Procedure, shortened: as §1

HOP-62 = tested on: HOP-62
Procedure, shortened: as §1

LC-2-ad = tested on: LC-2-ad
Procedure, shortened: as §1

LK-2 = tested on: LK-2
Procedure, shortened: as §1

NCI-H1355 = tested on: NCI-H1355
Procedure, shortened: as §1

NCI-H1734 = tested on: NCI-H1734
Procedure, shortened: as §1

NCI-H1993 = tested on: NCI-H1993
Procedure, shortened: as §1

NCI-H2009 = tested on: NCI-H2009
Procedure, shortened: as §1

NCI-H2085 = tested on: NCI-H2085
Procedure, shortened: as §1

NCI-H2228 = tested on: NCI-H2228
Procedure, shortened: as §1

NCI-H2347 = tested on: NCI-H2347
Procedure, shortened: as §1

NCI-H2405 = tested on: NCI-H2405
Procedure, shortened: as §1

NCI-H3122 = tested on: NCI-H3122
Procedure, shortened: as §1

NCI-H596 = tested on: NCI-H596
Procedure, shortened: as §1

PC-14 = tested on: PC-14
Procedure, shortened: as §1

RERF-LC-KJ = tested on: RERF-LC-KJ
Procedure, shortened: as §1

SK-MES-1 = tested on: SK-MES-1
Procedure, shortened: as §1

SW 1573 = tested on: SW 1573
Procedure, shortened: as §1

SW 900 = tested on: SW 900
Procedure, shortened: as §1

Compound: CCCCCCCCCCCC1=C(O)C(=O)C=C(O)C1=O [Embelin] + O=C(c1cc(Cc2n[nH]c(=O)c3ccccc23)ccc1F)N1CCN(C(=O)C2CC2)CC1 [Olaparib] (partner 8 µM)
- relative viability (CAL-12T; first compound 0.08 µM): 0.726
- relative viability (CAL-12T; first compound 0.8 µM): 0.727
- relative viability (CAL-12T; first compound 2.53 µM): 0.706
- relative viability (CAL-12T; first compound 8 µM): 0.677
- relative viability (Calu-6; first compound 0.08 µM): 0.589
- relative viability (Calu-6; first compound 0.8 µM): 0.682
- relative viability (Calu-6; first compound 2.53 µM): 0.573
- relative viability (Calu-6; first compound 8 µM): 0.655
- relative viability (ChaGo-K-1; first compound 0.08 µM): 0.464
- relative viability (ChaGo-K-1; first compound 0.8 µM): 0.319
- relative viability (ChaGo-K-1; first compound 2.53 µM): 0.441
- relative viability (ChaGo-K-1; first compound 8 µM): 0.45
- relative viability (EBC-1; first compound 0.08 µM): 0.699
- relative viability (EBC-1; first compound 0.8 µM): 0.828
- relative viability (EBC-1; first compound 2.53 µM): 0.703
- relative viability (EBC-1; first compound 8 µM): 0.684
- relative viability (EMC-BAC-2; first compound 0.08 µM): 0.48
- relative viability (EMC-BAC-2; first compound 0.8 µM): 0.378
- relative viability (EMC-BAC-2; first compound 2.53 µM): 0.453
- relative viability (EMC-BAC-2; first compound 8 µM): 0.492
- relative viability (HCC-366; first compound 0.08 µM): 0.335
- relative viability (HCC-366; first compound 0.8 µM): 0.369
- relative viability (HCC-366; first compound 2.53 µM): 0.372
- relative viability (HCC-366; first compound 8 µM): 0.423
- relative viability (HCC-78; first compound 0.08 µM): 0.953
- relative viability (HCC-78; first compound 0.8 µM): 0.78
- relative viability (HCC-78; first compound 2.53 µM): 0.961
- relative viability (HCC-78; first compound 8 µM): 0.778
- relative viability (HOP-62; first compound 0.08 µM): 0.29
- relative viability (HOP-62; first compound 0.8 µM): 0.253
- relative viability (HOP-62; first compound 2.53 µM): 0.354
- relative viability (HOP-62; first compound 8 µM): 0.451
- relative viability (LC-2-ad; first compound 0.08 µM): 0.675
- relative viability (LC-2-ad; first compound 0.8 µM): 0.728
- relative viability (LC-2-ad; first compound 2.53 µM): 0.678
- relative viability (LC-2-ad; first compound 8 µM): 0.727
- relative viability (LK-2; first compound 0.08 µM): 0.72
- relative viability (LK-2; first compound 0.8 µM): 0.515
- relative viability (LK-2; first compound 2.53 µM): 0.686
- relative viability (LK-2; first compound 8 µM): 0.69
- relative viability (NCI-H1355; first compound 0.08 µM): 0.73
- relative viability (NCI-H1355; first compound 0.8 µM): 0.675
- relative viability (NCI-H1355; first compound 2.53 µM): 0.869
- relative viability (NCI-H1355; first compound 8 µM): 0.733
- relative viability (NCI-H1734; first compound 0.08 µM): 0.623
- relative viability (NCI-H1734; first compound 0.8 µM): 0.568
- relative viability (NCI-H1734; first compound 2.53 µM): 0.651
- relative viability (NCI-H1734; first compound 8 µM): 0.644
- relative viability (NCI-H1993; first compound 0.08 µM): 1.16
- relative viability (NCI-H1993; first compound 0.8 µM): 1.07
- relative viability (NCI-H1993; first compound 2.53 µM): 1.21
- relative viability (NCI-H1993; first compound 8 µM): 1.6
- relative viability (NCI-H2009; first compound 0.08 µM): 0.693
- relative viability (NCI-H2009; first compound 0.8 µM): 0.821
- relative viability (NCI-H2009; first compound 2.53 µM): 0.71
- relative viability (NCI-H2009; first compound 8 µM): 0.696
- relative viability (NCI-H2085; first compound 0.08 µM): 0.727
- relative viability (NCI-H2085; first compound 0.8 µM): 0.73
- relative viability (NCI-H2085; first compound 2.53 µM): 0.842
- relative viability (NCI-H2085; first compound 8 µM): 0.777
- relative viability (NCI-H2228; first compound 0.08 µM): 0.474
- relative viability (NCI-H2228; first compound 0.8 µM): 0.886
- relative viability (NCI-H2228; first compound 2.53 µM): 0.735
- relative viability (NCI-H2228; first compound 8 µM): 0.755
- relative viability (NCI-H2347; first compound 0.08 µM): 0.596
- relative viability (NCI-H2347; first compound 0.8 µM): 0.641
- relative viability (NCI-H2347; first compound 2.53 µM): 0.521
- relative viability (NCI-H2347; first compound 8 µM): 0.68
- relative viability (NCI-H2405; first compound 0.08 µM): 0.872
- relative viability (NCI-H2405; first compound 0.8 µM): 0.842
- relative viability (NCI-H2405; first compound 2.53 µM): 0.909
- relative viability (NCI-H2405; first compound 8 µM): 0.863
- relative viability (NCI-H3122; first compound 0.08 µM): 0.646
- relative viability (NCI-H3122; first compound 0.8 µM): 0.603
- relative viability (NCI-H3122; first compound 2.53 µM): 0.609
- relative viability (NCI-H3122; first compound 8 µM): 0.671
- relative viability (NCI-H596; first compound 0.08 µM): 0.698
- relative viability (NCI-H596; first compound 0.8 µM): 0.707
- relative viability (NCI-H596; first compound 2.53 µM): 0.68
- relative viability (NCI-H596; first compound 8 µM): 0.762
- relative viability (PC-14; first compound 0.08 µM): 0.279
- relative viability (PC-14; first compound 0.8 µM): 0.264
- relative viability (PC-14; first compound 2.53 µM): 0.303
- relative viability (PC-14; first compound 8 µM): 0.26
- relative viability (RERF-LC-KJ; first compound 0.08 µM): 0.846
- relative viability (RERF-LC-KJ; first compound 0.8 µM): 0.956
- relative viability (RERF-LC-KJ; first compound 2.53 µM): 1.02
- relative viability (RERF-LC-KJ; first compound 8 µM): 0.48
- relative viability (SK-MES-1; first compound 0.08 µM): 0.757
- relative viability (SK-MES-1; first compound 0.8 µM): 0.815
- relative viability (SK-MES-1; first compound 2.53 µM): 0.802
- relative viability (SK-MES-1; first compound 8 µM): 0.214
- relative viability (SW 1573; first compound 0.08 µM): 0.545
- relative viability (SW 1573; first compound 0.8 µM): 0.561
- relative viability (SW 1573; first compound 2.53 µM): 0.443
- relative viability (SW 1573; first compound 8 µM): 0.47
- relative viability (SW 900; first compound 0.08 µM): 1
- relative viability (SW 900; first compound 0.8 µM): 0.771
- relative viability (SW 900; first compound 2.53 µM): 1.15
- relative viability (SW 900; first compound 8 µM): 0.918
